Results on 2 compounds are retold here after US20040161813A1, “Structure of beta-ketoacyl-[acyl carrier protein] synthases complexed with inhibitors and methods of use thereof” (St. Jude Children's Research Hospital, priority 2000, published 2004).

Entries after “also recorded” stand apart in the source; their conditions may differ. Read-outs that look alike come from different tables or passages of the source. Where only a bound is given, the exact number is not on record here.

Data set [1] addresses T1, E. coli FabB (β-ketoacyl-ACP synthase I) (Escherichia coli, UniProt P0A953).
T1 construct: made in house; host or cells: pET-15b-FabB expression vector; Novagen expression strains
The experiment in a line: FabB radiochemical condensing enzyme assay with myristoyl-ACP. In kind it is biochemical. On the procedure:
(§1) FabB and FabF radiochemical assay was performed using the scheme devised by Garwin et al. (11) using myristoyl-ACP as the substrate. The assays contained 100 μM ACP, 0.3 mM dithiothreitol, 1 mM EDTA, 0.1 M potassium phosphate buffer, pH 6.8, 50 μM [^14C]malonyl-CoA (specific activity 55 Ci/mole), 100 μM myristoyl-ACP, FabD (0.3 μg of protein), in a final volume of 20 μl. A mixture of ACP, 0.3 mM DTT, 1 mM EDTA, and the buffer was incubated at 37° C. for 30 min to ensure complete reduction ACP, and then the remaining components (except the condensing enzyme) were added. The mixture was then aliquoted into the assay tubes and the reaction was initiated by the addition of FabB or FabF. The reaction mixture was incubated at 37° C. for 20 min, then 400 μl of reducing agent (0.1 M K2HPO4, 0.4 M KCl, 30% tetrahydrofuran, and 5 mg/ml sodium borohydride) was added into the reaction tubes and incubated for 40 min.
(§2) Finally, 400 μl of toluene was added, vigorously mixed, and 300 μl of upper phase solution was counted in 3 ml of scintillation cocktail.

In data set [2] the target is T2, E. coli FabF (β-ketoacyl-ACP synthase II) (Escherichia coli, UniProt P0AAI5).
T2 construct: made in house
In words: FabF radiochemical condensing enzyme assay with myristoyl-ACP. In kind it is biochemical. The protocol: as §1, §2

For data set [3] the following is noted: cited from earlier work.
The target in the next data set is B. subtilis FabF (Bacillus subtilis, UniProt O34340). In words: Inhibition of B. subtilis FabF in vitro. In kind it is biochemical.
The target of the next data set is T3, FabB (Escherichia coli, UniProt P0A953).
T3 construct: made in house; host or cells: pET-15b-FabB expression vector; Novagen expression strains
The experiment in a line: Time course of FabB inhibition (reversibility). Particulars: for Reversibility of FabB inhibition: 20 μM TLM or 3 μM cerulenin, with or without 30 min preincubation. In kind it is biochemical. The protocol: The time course for the inhibition of FabB activity under five experimental conditions was determined to address the reversibility of the antibiotics. Time course for the FabB reaction in the absence of inhibitors (▾), in the presence of 20 μM TLM (●) or 3 μM cerulenin (∘). FabB was preincubated with either 20 μM TLM (▪) or 3 μM cerulenin (□) for 30 min prior to initiation of the reaction by the addition of the other substrates. FabB activity was measured using the radiochemical assay with myristoyl-ACP as the substrate as described under “Experimental Procedures” in the Example below.
as §1, §2
This hypothesis was examined by comparing the kinetics of TLM inhibition to that of cerulenin (FIG. 2), which is known to form a covalent complex with the active site cysteine of the condensing enzymes. […] This indicates the formation of the irreversible FabB-cerulenin binary complex. The same two types of time course experiments were performed with TLM (FIG. 2A).

For data set [4], the target named is T4, E. coli FabH (β-ketoacyl-ACP synthase III) (Escherichia coli, UniProt P0A6R0).
T4 construct: made in house
In words: FabH filter disc assay with [1-14C]acetyl-CoA. In kind it is biochemical. The protocol: A filter disc assay was used to assay FabH activity with [1-^14C]acetyl-CoA as described previously (15,18). The assays contained 100 μM ACP, 1 mM β-mercaptoethanol, 45 μM [^14C]acetyl-CoA (specific activity, 52.0 Ci/mole), and 50 μM malonyl-CoA, E. coli FabD (0.3 μg) and 0.1 M sodium phosphate buffer (pH 7.0) in a final volume of 40 μl. The reaction was initiated by the addition of FabH and the mixture was incubated at 37° C. for 12 min. A 35-μl aliquot was removed and deposited on a Whatman 3MM filter disc. The discs were washed with three changes (20 ml/disc for 20 min) of ice-cold trichloroacetic acid. The concentration of the trichloroacetic acid was reduced from 10 to 5 to 1% in each successive wash. The filters were dried and counted in 3 ml of scintillation cocktail.

Data set [5] has as its system urinary tract and intraperitoneal bacterial infections. Particulars: mice; cited from earlier work.
For another data set, the target named is T5, FabB[H333N] (Escherichia coli, UniProt P0A953, H333N).
T5 construct: made in house; host or cells: pET-15b-FabB expression vector; Novagen expression strains
T5 sequence (P0A953 1-406 H333N): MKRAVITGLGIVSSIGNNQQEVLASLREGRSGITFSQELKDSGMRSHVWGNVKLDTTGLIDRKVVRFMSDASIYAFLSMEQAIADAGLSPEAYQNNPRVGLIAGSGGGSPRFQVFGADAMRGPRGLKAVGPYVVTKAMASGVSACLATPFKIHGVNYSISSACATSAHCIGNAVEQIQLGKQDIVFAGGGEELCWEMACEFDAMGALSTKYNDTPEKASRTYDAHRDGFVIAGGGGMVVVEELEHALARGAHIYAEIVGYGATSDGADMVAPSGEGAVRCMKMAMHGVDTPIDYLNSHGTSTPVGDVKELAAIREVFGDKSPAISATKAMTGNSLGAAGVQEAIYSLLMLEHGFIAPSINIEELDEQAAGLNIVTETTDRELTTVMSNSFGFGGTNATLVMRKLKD
In words: FabB[H333N] mutant radiochemical assay with 14:0-ACP primer. In kind it is biochemical. As to conditions: inhibition by cerulenin. The protocol:
as §1, §2
Construction of the FabB[H333N] mutant—A portion of the fabB gene was amplified using the polymerase chain reaction with two specific primers. The first primer introduced the desired mutation, and extended over a unique AgeI site (5′-[…]-3′, SEQ ID NO:3). The second primer created a BamHI site downstream of the stop codon (5′-[…]-3′, SEQ ID NO:4). […]

T3 sequence (P0A953 whole entry): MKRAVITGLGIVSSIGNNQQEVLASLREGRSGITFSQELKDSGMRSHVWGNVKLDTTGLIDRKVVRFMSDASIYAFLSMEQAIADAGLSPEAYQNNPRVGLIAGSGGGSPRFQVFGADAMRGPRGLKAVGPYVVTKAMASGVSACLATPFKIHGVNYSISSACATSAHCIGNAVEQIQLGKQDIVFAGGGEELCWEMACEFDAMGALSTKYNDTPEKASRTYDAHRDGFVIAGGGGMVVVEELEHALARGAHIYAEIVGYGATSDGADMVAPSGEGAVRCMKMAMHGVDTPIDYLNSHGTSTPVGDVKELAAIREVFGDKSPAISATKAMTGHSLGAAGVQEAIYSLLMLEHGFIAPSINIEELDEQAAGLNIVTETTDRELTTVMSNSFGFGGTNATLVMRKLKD
T4 sequence (P0A6R0 whole entry): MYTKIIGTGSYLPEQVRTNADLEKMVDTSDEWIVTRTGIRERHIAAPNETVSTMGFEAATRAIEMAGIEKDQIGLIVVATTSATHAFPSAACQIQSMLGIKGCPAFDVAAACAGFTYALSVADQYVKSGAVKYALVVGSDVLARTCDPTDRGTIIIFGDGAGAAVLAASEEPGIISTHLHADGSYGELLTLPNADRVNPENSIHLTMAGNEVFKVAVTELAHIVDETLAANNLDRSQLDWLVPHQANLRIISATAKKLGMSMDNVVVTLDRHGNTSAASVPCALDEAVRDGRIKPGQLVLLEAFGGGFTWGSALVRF
T2 sequence (P0AAI5 whole entry): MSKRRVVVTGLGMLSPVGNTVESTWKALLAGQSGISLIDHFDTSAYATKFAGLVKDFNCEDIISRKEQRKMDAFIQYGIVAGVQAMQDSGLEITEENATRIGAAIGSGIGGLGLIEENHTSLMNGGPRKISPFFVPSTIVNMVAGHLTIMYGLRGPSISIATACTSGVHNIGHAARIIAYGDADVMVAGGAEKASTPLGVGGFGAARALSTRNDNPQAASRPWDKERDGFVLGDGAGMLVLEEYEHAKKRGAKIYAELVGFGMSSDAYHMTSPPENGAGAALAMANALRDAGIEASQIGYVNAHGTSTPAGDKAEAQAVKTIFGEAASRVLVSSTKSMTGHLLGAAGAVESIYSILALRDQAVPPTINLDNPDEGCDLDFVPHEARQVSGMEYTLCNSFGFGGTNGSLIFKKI
T1 sequence (P0A953 whole entry): as the sequence (P0A953 whole entry) above
B. subtilis FabF, sequence (O34340 whole entry): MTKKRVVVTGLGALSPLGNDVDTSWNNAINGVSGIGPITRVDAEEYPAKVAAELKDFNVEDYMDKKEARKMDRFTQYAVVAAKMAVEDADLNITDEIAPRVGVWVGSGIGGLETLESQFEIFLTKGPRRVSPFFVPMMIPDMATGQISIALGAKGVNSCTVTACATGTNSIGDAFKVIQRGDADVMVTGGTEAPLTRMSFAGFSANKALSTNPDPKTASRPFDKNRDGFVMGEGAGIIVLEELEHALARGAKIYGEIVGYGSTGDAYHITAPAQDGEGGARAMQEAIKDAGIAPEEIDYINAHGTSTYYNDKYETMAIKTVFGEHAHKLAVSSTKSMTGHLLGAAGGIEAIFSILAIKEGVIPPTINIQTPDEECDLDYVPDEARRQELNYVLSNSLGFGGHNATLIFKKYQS

What is called IC50 is the concentration needed to halve the response being measured. As for `C=C/C(C)=C/C1(C)SC(=O)C(C)=C1O` (stereo in doubt) [TLM, (4S)(2E,5E)-2,4,6-trimethyl-3-hydroxy-2,5,7-octatriene-4-thiolide], the IC50 was determined as 25 µM in data set [1], 6 µM in data set [2] and 110 µM in data set [4]. Also, the Toxicity to mice result in data set [3] is given as “not toxic”. Moreover, the “Inhibition of B. subtilis FabF in vitro” value on B. subtilis FabF was “very weak inhibitor”. The “Reversibility of FabB inhibition” value on FabB is reported as “reversible inhibitor; also recorded: reversibly inhibited”. For the same compound, the “Protection against urinary tract and intraperitoneal bacterial infections” value in data set [5] is recorded as “significant protection”.
Regarding `C/C=C/C/C=C/CCC(=O)[C@H]1O[C@H]1C(N)=O` [cerulenin, (2R,3S)-2,3-epoxy-4-oxo-7,10-dodecandienolyamide], the IC50 in data set [1] (purified E. coli enzyme, myristoyl-ACP (14:0-ACP) substrate, read-out: IC50 FabB) is 3 µM; in data set [2] (purified E. coli enzyme, myristoyl-ACP substrate, read-out: IC50 FabF), 20 µM; at FabB[H333N], 30 µM; in data set [4] (purified E. coli enzyme, acetyl-CoA primer, read-out: IC50 FabH) it was > 700 µM. Also, the “Product formation after preincubation of inhibitor with FabB” value at FabB (3 μM cerulenin preincubated 30 min, reaction initiated with substrates) is “no discernable product formation”. For the same compound, the “Reversibility of FabB inhibition” value at FabB was “slow-binding, irreversible inhibitor; also recorded: irreversibly inhibited”. For the same compound, the “Sensitivity of FabH to inhibitor” value in data set [4] is “essentially resistant”.
